Two compounds from ChEMBL document CHEMBL1128704, “(R)-11-hydroxy- and (R)-11-hydroxy-10-methylaporphine: synthesis, pharmacology, and modeling of D2A and 5-HT1A receptor interactions” (J Med Chem, 1995) can be followed below.

In assay [1] the target is D(1A) dopamine receptor (Rattus norvegicus, UniProt P18901). As to the kind of experiment: Ability to displace [3H]SCH-23390 binding to rat striatal Dopamine receptor D1.
The target of assay [2] is T1, 5-hydroxytryptamine receptor 1A (Rattus norvegicus) (UniProt P19327).
T1 sequence (whole entry): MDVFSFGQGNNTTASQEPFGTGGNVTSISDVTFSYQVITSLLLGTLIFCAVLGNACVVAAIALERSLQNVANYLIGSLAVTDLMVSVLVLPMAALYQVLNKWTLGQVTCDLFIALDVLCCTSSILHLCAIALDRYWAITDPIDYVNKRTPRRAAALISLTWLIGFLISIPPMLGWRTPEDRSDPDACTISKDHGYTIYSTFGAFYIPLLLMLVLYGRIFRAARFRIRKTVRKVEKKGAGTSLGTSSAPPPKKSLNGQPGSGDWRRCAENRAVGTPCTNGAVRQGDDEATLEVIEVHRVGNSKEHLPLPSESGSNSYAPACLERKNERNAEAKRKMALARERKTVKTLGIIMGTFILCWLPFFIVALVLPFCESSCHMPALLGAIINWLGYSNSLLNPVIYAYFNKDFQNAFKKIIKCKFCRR
Put plainly: (§1) Ability to inhibit 5-HT sensitive,forskolin-stimulated adenylyl cyclase(FSC) activity in rat hippocampal membranes mediated through 5-hydroxytryptamine 1A receptor. Format: functional, cell membranes. To be noted: concentration not given here.

Assay [3] has as its target T2, 5-hydroxytryptamine receptor 1A (Rattus norvegicus, UniProt P19327).
T2 sequence (P19327 whole entry): T1 sequence (whole entry)
As to the kind of experiment: Ability to displace [3H]8-OH-DPAT binding to rat hippocampal 5-hydroxytryptamine 1A receptor. Format: tissue-based, Hippocampus.

Assay [4] deals with T2, 5-hydroxytryptamine receptor 1A. Described as §1. Format: functional, cell membranes.
The target in assay [5] is D(2) dopamine receptor (Homo sapiens, UniProt P14416). Put plainly: Ability to displace [3H]raclopride binding to cloned human Dopamine receptor D2A.

In general, Ki refers to a dissociation constant, usually derived from enzyme kinetics or from competition with a known ligand. For orientation: inhibition means the relative decrease from the control value, in per cent. What is called EC50 is the concentration giving half of the maximal effect. A low value points to an effect from little substance.

Chain of D(1A) dopamine receptor (P18901 whole entry): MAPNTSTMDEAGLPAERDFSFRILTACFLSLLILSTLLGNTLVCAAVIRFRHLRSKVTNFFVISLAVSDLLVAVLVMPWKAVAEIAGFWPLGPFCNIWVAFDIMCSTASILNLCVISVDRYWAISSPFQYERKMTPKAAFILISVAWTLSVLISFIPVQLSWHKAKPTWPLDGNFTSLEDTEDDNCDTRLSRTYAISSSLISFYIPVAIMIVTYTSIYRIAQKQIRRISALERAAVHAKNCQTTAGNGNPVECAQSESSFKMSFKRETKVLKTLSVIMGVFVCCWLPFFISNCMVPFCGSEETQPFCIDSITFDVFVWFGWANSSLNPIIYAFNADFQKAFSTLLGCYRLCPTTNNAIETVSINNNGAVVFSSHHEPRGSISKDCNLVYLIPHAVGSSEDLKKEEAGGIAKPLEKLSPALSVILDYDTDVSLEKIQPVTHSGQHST
Chain of D(2) dopamine receptor (P14416 whole entry): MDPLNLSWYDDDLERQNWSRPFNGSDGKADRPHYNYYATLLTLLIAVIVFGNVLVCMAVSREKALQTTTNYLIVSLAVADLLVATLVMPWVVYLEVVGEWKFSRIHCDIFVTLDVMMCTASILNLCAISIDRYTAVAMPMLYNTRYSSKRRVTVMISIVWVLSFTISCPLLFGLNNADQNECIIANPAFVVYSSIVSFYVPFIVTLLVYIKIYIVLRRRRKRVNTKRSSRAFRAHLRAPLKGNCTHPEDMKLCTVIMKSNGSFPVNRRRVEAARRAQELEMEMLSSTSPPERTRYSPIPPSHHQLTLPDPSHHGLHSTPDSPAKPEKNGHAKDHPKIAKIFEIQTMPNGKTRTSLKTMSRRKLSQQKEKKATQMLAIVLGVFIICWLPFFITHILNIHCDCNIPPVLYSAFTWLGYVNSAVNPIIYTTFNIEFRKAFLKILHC

For `Cc1ccc2c(c1O)-c1cccc3c1[C@@H](C2)N(C)CC3`, the results for the Ki in assay [1], in assay [3] and in assay [5] were 382 nM, 0.45 nM and 1070 nM, respectively. Further, the inhibition in assay [2] is 102%. This compound registered an EC50 in assay [4] of 55 nM.

On to `CN1CCc2cccc3c2[C@H]1Cc1cccc(O)c1-3`, for which the Ki in assay [1] was 20.4 nM; in assay [3] it was 9.6 nM; in assay [5], 58.5 nM. In assay [2], the inhibition came to 60%. In assay [4], this compound yielded an EC50 of 5200 nM.
